The text below walks through data of patent US20240117303A1, “METHODS AND COMPOSITIONS FOR GENERATING HUMAN MIDBRAIN DOPAMINERGIC NEURONS FROM NEURAL PROGENITOR CELLS” (Trailhead Biosystems Inc., priority 2022, published 2024).

Format in all cases: cell-based, human
One test deals with MB neural progenitors. Nature of the test: HD-DoE 8-factor model, DBZ and AZD3147 (FIG. 26). The following applies: dynamic profile.
Test [1] relates to stage 1 neural stem cells. In words: HD-DoE 12-factor experiment for stage 2 recipe (second model, FIG. 8-10, 13). Particulars: for impact on expression of FOXA2 / impact on expression of LMX1A: dynamic profile, 12 effectors. The protocol: To test additional factors like FGF8 that is routinely used in midbrain differentiation protocols, we ran another 12-factor experiment consisting of LDN193189, BMP7, A 83-01, Activin A, Takinib, PD0325901, MK2206, FGF8b, AZD3147, MHY1485, GSI-XX and Yhhu 3792. Similar to the previous experiment, hiPSCs were treated with stage 1 media for 3 days and then treated with 96 conditions of combinations of the factors for an additional 3 days. When this model was optimized for maximum expression of FOXA2, BMP7 with factor contribution of 13.7 and MK2206 with 14.2 had the most impact on its expression followed by AZD 3147 with factor contribution of 10.9.
To assess the impact of elimination of each validated factor, we used dynamic profile analysis and compared the expression level of genes of interest in absence of each finalized factor while others are present.
In the stage 2 recipe, each of the six finalized factors were removed while the other five factors were present and the expression levels of FOXA2, LMX1A and GBX2 were assessed, compared to the levels in the presence of all factors. According to the first experiment model, the absence of TTNPB lead to a rise of GBX2 expression, while the value of FOXA2 and LMX1A reduced drastically from 10,000 to 0 and 30,000 to 15,000, respectively. The absence of A 83-01 reduced the expression of FOXA2 from 10,000 to 7000, however, as expected, the value of LMX1A increased from 30,000 to 40,000. […] According to the second experiment model, the absence of BMP7 and MK2206 both reduced the level of FOXA2 while increasing the value of LMX1A, with BMP7 as the main effector that led to 0 expression of FOXA2.

For test [2], the system named is stage 2 neural progenitors. In words: HD-DoE another 12-factor model for stage 3 recipe (FIG. 24, 25, 30). The following applies: for level of MSX1 in absence of the factor / level of SOX6 in absence of the factor: AZD3147, DBZ, PD0325901 and BMP7 set; for level of MSX1 in absence of the factor: 45 with all factors; for level of SOX6 in absence of the factor: 185 with all factors; for impact on expression of MSX1 / impact on expression of SOX6: dynamic profile, 12 effectors; for factor contribution: model optimized for SOX6, positive impact. The protocol:
In another 12-factor model, additional factors including Activin A, Takinib (TAK inhibitor), FGF8b, AZD3147 (mTOR antagonist), MHY1485 (mTOR agonist), and Yhhu-3792 (Notch agonist) were tested. Some of the factors from previous model (BMP7, A 8301, LDN193189, PD0325901, MK2206 and DBZ) were also included.
(§1) To assess the impact of elimination of each validated factor identified in Example 5 for the stage 3 and stage 4 recipes, we used dynamic profile analysis and compared the expression level of genes of interest in absence of each finalized factor while others are present.
In another model, to determine the combinatorial effect of AZD3147 and DBZ on gene profile of cells in presence of other factors of final recipe, the expression levels of SOX6 and MSX1 were compared in the absence of each of the factors in the presence of PD0325901 and BMP7. These two compounds were the only final compounds that were included in inputs of this experimental model The results are shown in FIG. 30A and FIG. 30B. […] When DBZ was removed, the level of SOX6 and MSX1 both decreased to 140 and 35, respectively.

For a further test, the system named is stage 3 immature neurons. In words: HD-DoE 8-factor experiment for stage 4 recipe (FIG. 27, 28, 31). The protocol:
To further differentiate the cells to a mature neuronal identity, additional HD-DoE experiments were performed on the cells that were cultured in stage 1, stage 2 and stage 3 differentiation media. After 4 days, gene expression of cells in different combinatorial conditions were investigated. At this time, we focused on maximal expression of more mature dopaminergic genes such as NR4A2, PITX3 and TH (Tiklová et al. (2020) Nat Commun. 11:2434; Fiorenzano et al. (2021) Nat Commun., 12:7302). In one model, cells were treated with a combinatorial matrix with eight inputs including CHIR99021, BDNF, GDNF, Rosiglitazone, GW7647, DBZ and heparin.
as §1
In the stage 4 recipe, each of six finalized factors were excluded while other factors were present and the expression levels of NR4A2 and PITX3 were assessed compared to the presence of all factors.

Test [3] has as its system stage 2 neural progenitors. In words: HD-DoE 12-factor model for stage 3 recipe (FIG. 19-23, 29). Particulars: model optimized for maximum expression of KCNJ6; positive regulators.

Entries after “also recorded” stand apart in the source; their conditions may differ.

Take `C[C@H]1COCCN1c1cc(C2(S(=O)(=O)C3CC3)CC2)nc(-c2ccc(NC(=S)NCCO)cc2)n1` [AZD 3147]: the “impact on expression of CORIN, KCNJ6, SOX6 and MSX1” value in the test with MB neural progenitors was “positive regulatory effect; also recorded: Positive impact”. In addition, in test [1], the “impact on expression of FOXA2” value is recorded as “did not reduce” and the “impact on expression of LMX1A” value was “significant positive impact”. Besides, the factor contribution in test [1] (model optimized for maximum expression of FOXA2, positive impact) was 10.9. Further, in test [1] (stage 2 recipe, second experiment model), the “level of FOXA2 in absence of the factor” value is reported as “almost no effect”. In test [1] (stage 2 recipe, second experiment model, 4000 with all factors), the “level of LMX1A in absence of the factor” value was determined as 2000. In test [2], the “level of MSX1 in absence of the factor” value was “did not change”, the “level of SOX6 in absence of the factor” value amounted to 150, the “impact on expression of MSX1” value is given as “did not show any significant impact” and the “impact on expression of SOX6” value is listed as “positive impact”. The same molecule showed a factor contribution in test [2] of 20.2.

Regarding `C[C@H](NC(=O)Cc1cc(F)cc(F)c1)C(=O)N[C@@H]1C(=O)N(C)c2ccccc2-c2ccccc21` [DBZ], the “impact on expression of NR4A2” value in the test with stage 3 immature neurons (8-factor model / dynamic profile) is recorded as “positive regulatory impact”. In the test on stage 3 immature neurons (stage 4 recipe, other factors present, 40 with all factors), the “expression level of PITX3 in absence of the factor” value is listed as 30. Besides, in the test on stage 3 immature neurons (stage 4 recipe, other factors present, 400 with all factors), the “expression level of NR4A2 in absence of the factor” value stood at 200. In addition, the “impact on expression of CORIN, KCNJ6, SOX6 and MSX1” value in the test with MB neural progenitors is listed as “positive regulatory effect; also recorded: Positive impact”. In test [2], the “level of MSX1 in absence of the factor” value is on record as 35, the “level of SOX6 in absence of the factor” value turned out to be 140, the “impact on expression of MSX1” value was “did not show any significant impact” and the “impact on expression of SOX6” value is “positive impact”. In test [2], this molecule showed a factor contribution of 21.5. In addition, in test [3], the factor contribution result is recorded as “low factor contributions”.

Regarding `CCCn1/c(=N/C(=O)c2cccc(C(N)=O)c2)[nH]c2ccccc21` [Takinib], in test [1], the “impact on expression of FOXA2” value is listed as “did not make a meaningful positive change” and the “impact on expression of LMX1A” value is reported as “did not make a meaningful positive change”. Moreover, in test [2], the “impact on expression of MSX1” value was “negatively regulate; also recorded: negative impact” and the “impact on expression of SOX6” value is given as “positive effect”.

B1: Activin A: effector tested in the HD-DoE experiments (protein, UniProt P08476 311-426, looked up)
Inhibin beta A chain: GLECDGKVNICCKKQFFVSFKDIGWNDWIIAPSGYHANYCEGECPSHIAGTSGSSLSFHSTVINHYRMRGHSPFANLKSCCVPTKLRPMSMLYYDDGQNIIKKDIQNMIVEECGCS
modifications: Inhibin beta A chain
With B1, in test [1], the “impact on expression of FOXA2” value is reported as “did not make a meaningful positive change” and the “impact on expression of LMX1A” value is recorded as “did not make a meaningful positive change”. Also, in test [2], the “impact on expression of MSX1” value is “negatively regulate; also recorded: negative impact” and the “impact on expression of SOX6” value was “positive effect”.
